Experiments:
target gene SOD1 [1] = assay: Test Example 8: inhibitory activity on target gene SOD1 in adipose tissues in different parts of mice; type: in vivo, C57BL/6j mice; details: tail vein injection 5 mg/kg, D14; for Subcutaneous fat % Mean value of inhibition rate: abdominal subcutaneous fat
Protocol: (§1) RNA extraction: the above tissue samples were taken out from the RNAlater, and smashed for 60 s in Tissuelyser type II full-automatic tissue homogenizer, and total RNAs of various tissue samples were extracted using the full-automatic nucleic acid extraction instrument and the nucleic acid extraction kit from Zhejiang Hanwei Science and Technology Co. Ltd. according to methods described in instructions.
(§2) Reverse transcription reaction: 1 μg of the extracted total RNAs of the tissue samples were taken, and configured into 20 μL of reverse transcription system according to a method described in kit instructions by using a reverse transcription kit (Reverse Transcription System, A3500) from Promega Corporation and selecting Oligo (dT)15 reverse transcription primers, and the reverse transcription reaction was completed. After the reaction was ended, 80 μL of RNase-Free water was added into the reverse transcription system to provide cDNA solution for Real-time PCR detection.
(§3) Real-time PCR detection: 20 μL of Real-time PCR reaction system per PCR detection well was configured according to a method described in kit instructions using SYBR™ Select Master Mix (Catalog number: 4472908) reagent from ABI company. Each detection system contained 5 μL of cDNA template obtained from the above reverse transcription reaction, 10 μL of SYBR™ Select Master Mix, 0.5 μL of 10 μM upstream primers, 0.5 μL of 10 μM downstream primers, and 4 μL of RNase-Free H2O. The configured reaction system was subjected to Real-time PCR amplification on ABI StepOnePlus PCR instrument by a three-step method, wherein an amplification procedure was pre-denaturation at 95° C. for 10 min, then denaturation at 95° C. for 30 s, annealing at 60° C. for 30 s, and extension at 72° C. for 30 s; and processes of denaturation, annealing, and extension were repeated for 40 cycles. Gene expression differences were calculated by the ΔΔCt method after completion of the procedure.
(§4) In the real-time fluorescence quantitative PCR method, relative quantitative calculation of remaining expression level and inhibition rate of gene mRNA of interest in various test groups was performed by the ΔΔCt method, and the calculation method is as follows:
(§5) The present test example evaluated, by an evaluation method for inhibitory activity on a target gene in mice, the inhibitory activity of siRNA sequence RZ899090 with the sense strand with the NM073 conjugation at Position 4, siRNA sequence RZ899091 with the sense strand with the NM074 conjugation at Position 4, siRNA sequence RZ899078 with the sense strand with the NM202 conjugation at Position 6 and siRNA reference sequence RZ899093 with the sense strand with the Uhd conjugation at Position 4, siRNA reference sequence RZ899076 with the sense strand with the NM200 conjugation at Position 4 on the target gene SOD1 in adipose tissues of interest in mice.
(§6) 6-8 Week-old C57BL/6j mice were randomly grouped by body weight, 5 per group, 6 groups in total. Mice in each group were dosed with the above siRNA conjugates by tail vein injection, with an administration dose of 5 mg/kg per mouse, and an administration volume of 150 μL. PBS control group was administered with the same volume of siRNA conjugate-free PBS solution. The day of administration was recorded as D0, and 5 mice in each group were sacrificed on D14 after administration. Paragonadal fat, abdominal subcutaneous fat, and brown fat on back were respectively taken. RNA extraction, reverse transcription, and real-time fluorescence quantitative detection were performed on various tissues according to the above method, and gene expression differences were calculated by the above ΔΔCt method.

target gene SOD1 [2] = assay: Test Example 7: inhibitory activity of lipid conjugated siRNA sequences on SOD1 in mouse adipose and muscle tissues (tail vein injection); type: in vivo, C57BL/6j mice; details: for D 14 % Mean value of inhibition rate / D 28 % Mean value of inhibition rate / D 49 % Mean value of inhibition rate / Kidney D 14 % Mean value of inhibition rate / Kidney D 28 % Mean value of inhibition rate / Kidney D 49 % Mean value of inhibition rate / Liver D 14 % Mean value of inhibition rate / Liver D 28 % Mean value of inhibition rate / Liver D 49 % Mean value of inhibition rate: tail vein injection 5 mg/kg; for D 28 % Mean value of inhibition rate / Kidney D 28 % Mean value of inhibition rate / Liver D 28 % Mean value of inhibition rate: D28; for D 49 % Mean value of inhibition rate / Kidney D 49 % Mean value of inhibition rate / Liver D 49 % Mean value of inhibition rate: D49; for Kidney D 14 % Mean value of inhibition rate / Kidney D 28 % Mean value of inhibition rate / Kidney D 49 % Mean value of inhibition rate: mouse kidney; for Liver D 14 % Mean value of inhibition rate / Liver D 28 % Mean value of inhibition rate / Liver D 49 % Mean value of inhibition rate: mouse liver
Protocol: as §1, §2, §3, §4
as §5, with “Position 4, and siRNA reference” for “Position 4, siRNA reference”, “gene SOD1 of interest” for “gene SOD1 in adipose tissues of interest”, “in mice. The above conjugation vectors were different in that NM073 was C18 aliphatic chain, NM074 was C20 aliphatic chain, and NM0202 and NM0200 were C22 aliphatic chains.” for “in mice.”
as §6, with “weight, 15” for “weight, 5”, “on D14, D28 and D49” for “on D14”, “administration. Tissues such as paragonadal” for “administration. Paragonadal”, “fat, left hind leg quadriceps muscle, heart, liver,” for “fat, abdominal subcutaneous fat,”, “and kidney” for “and brown fat on back”, “respectively taken and stored in the RNAlater.” for “respectively taken.”

[3] = mouse adipose tissues (paragonadal fat), D14
[4] = mouse adipose tissues (paragonadal fat)
[5] = mouse skeletal muscle tissues (left hind leg quadriceps muscle), D14
[6] = mouse skeletal muscle tissues (left hind leg quadriceps muscle)

RZ899076: siRNA reference sequence with the sense strand with the NM200 (C22) conjugation at Position 4; SEQ ID NO: 18 / 24 (sense UUUNAAUCCUCACUCUAAA; antisense UUUAGAGUGAGGAUUAAAAUG; NM200 (C22) conjugate at sense position 4; modified_base 1..2 OTHER; 2'-methoxy and 5'-thiophosphate modified nucleotides; modified_base 3 OTHER; 2'-methoxy modified nucleotide; modified_base 4 OTHER; n is the synthetic nucleotide analog NM200 as described in the disclosure.; modified_base 5..6 OTHER; 2'-methoxy modified nucleotides; modified_base 7..10 OTHER; 2'-fluoro modified nucleotides; modified_base 11..19 OTHER; 2'-methoxy modified ; modified_base 1 OTHER; 2'-methoxy and 5'-thiovinylphosphonate modified nucleotide; modified_base 2 OTHER; 2'-fluoro and 5'-thiophosphate modified …) [reference compound]
Subcutaneous fat % Mean value of inhibition rate (target gene SOD1 [1]): 76.03%
Brown fat on back % Mean value of inhibition rate (target gene SOD1 [1]): 80.80%
Paragonadal fat % Mean value of inhibition rate (target gene SOD1 [1]): 56.52%
D 14 % Mean value of inhibition rate (target gene SOD1 [2]; [3]): 92.23%
D 28 % Mean value of inhibition rate (target gene SOD1 [2]; [4]): 86.10%
D 49 % Mean value of inhibition rate (target gene SOD1 [2]; [4]): 73.36%
D 14 % Mean value of inhibition rate (target gene SOD1 [2]; mouse heart tissues, D14): 70.04%
D 28 % Mean value of inhibition rate (target gene SOD1 [2]; mouse heart tissues): 70.45%
D 49 % Mean value of inhibition rate (target gene SOD1 [2]; mouse heart tissues): 37.03%
Kidney D 14 % Mean value of inhibition rate (target gene SOD1 [2]; D14): 9.13%
Kidney D 28 % Mean value of inhibition rate (target gene SOD1 [2]): 9.82%
Kidney D 49 % Mean value of inhibition rate (target gene SOD1 [2]): 7.06%
Liver D 14 % Mean value of inhibition rate (target gene SOD1 [2]; D14): 51.15%
Liver D 28 % Mean value of inhibition rate (target gene SOD1 [2]): 15.46%
Liver D 49 % Mean value of inhibition rate (target gene SOD1 [2]): −13.46%
D 14 % Mean value of inhibition rate (target gene SOD1 [2]; [5]): 82.53%
D 28 % Mean value of inhibition rate (target gene SOD1 [2]; [6]): 81.97%
D 49 % Mean value of inhibition rate (target gene SOD1 [2]; [6]): 66.88%

RZ899078: siRNA sequence with the sense strand with the NM202 (C22) conjugation at Position 6; SEQ ID NO: 20 / 24 (sense UUUUANUCCUCACUCUAAA; antisense UUUAGAGUGAGGAUUAAAAUG; NM202 (C22) conjugate at sense position 6; modified_base 1..2 OTHER; 2'-methoxy and 5'-thiophosphate modified nucleotides; modified_base 3..5 OTHER; 2'-methoxy modified nucleotides; modified_base 6 OTHER; n is the synthetic nucleotide analog NM202 as described in the disclosure.; modified_base 7..10 OTHER; 2'-fluoro modified nucleotides; modified_base 11..19 OTHER; modified_base 1 OTHER; 2'-methoxy and 5'-thiovinylphosphonate modified nucleotide; modified_base 2 OTHER; 2'-fluoro and 5'-thiophosphate modified nucleotide; modified_base 6 OTHER;)
Subcutaneous fat % Mean value of inhibition rate (target gene SOD1 [1]): 71.42%
Brown fat on back % Mean value of inhibition rate (target gene SOD1 [1]): 67.27%
Paragonadal fat % Mean value of inhibition rate (target gene SOD1 [1]): 55.23%
inhibitory action on liver and kidney tissues (target gene SOD1 [2]; liver and kidney (non-target tissues), tail vein 5 mg/kg, D28 and D49): no inhibitory action
D 14 % Mean value of inhibition rate (target gene SOD1 [2]; [3]): 91.53%
D 28 % Mean value of inhibition rate (target gene SOD1 [2]; [4]): 75.82%
D 49 % Mean value of inhibition rate (target gene SOD1 [2]; [4]): 65.16%
inhibitory activity compared with the NM200 conjugated reference sequence RZ899076 (target gene SOD1 [2]; mouse adipose tissues, tail vein 5 mg/kg, D14): on par
inhibitory activity compared with Uhd conjugated reference sequence RZ899093 and NM200 conjugated reference sequence RZ899076 (target gene SOD1 [2]; mouse heart tissues, tail vein 5 mg/kg, D14, D28 and D49): superior inhibitory activity
D 14 % Mean value of inhibition rate (target gene SOD1 [2]; mouse heart tissues, D14): 83.53%
D 28 % Mean value of inhibition rate (target gene SOD1 [2]; mouse heart tissues): 79.52%
D 49 % Mean value of inhibition rate (target gene SOD1 [2]; mouse heart tissues): 63.42%
Kidney D 14 % Mean value of inhibition rate (target gene SOD1 [2]; D14): −7.92%
Kidney D 28 % Mean value of inhibition rate (target gene SOD1 [2]): 1.46%
Kidney D 49 % Mean value of inhibition rate (target gene SOD1 [2]): 2.03%
Liver D 14 % Mean value of inhibition rate (target gene SOD1 [2]; D14): 20.63%
Liver D 28 % Mean value of inhibition rate (target gene SOD1 [2]): 15.46%
Liver D 49 % Mean value of inhibition rate (target gene SOD1 [2]): −11.54%
D 14 % Mean value of inhibition rate (target gene SOD1 [2]; [5]): 71.63%
D 28 % Mean value of inhibition rate (target gene SOD1 [2]; [6]): 69.78%
inhibitory activity in mouse skeletal muscle tissues (target gene SOD1 [2]; skeletal muscle, tail vein 5 mg/kg): highest inhibitory activity in muscles
